Reference: patent US20210290680A1, “METHODS AND COMPOSITIONS FOR MODULATING CELLULAR AGING” (Dorian Therapeutics, Inc., priority 2019, published 2021)

How the values were obtained:
primary T cells = assay: Stem cell memory T cell phenotype by flow cytometry (CD45RA+CD62L+); assay type: cell-based, human; conditions: for stem cell frequency (Tscm phenotype ratio), fold increase over Control: day 20, gated on CD8
Method: Primary T cells were activated as described (Example 3), transduced with a lentivirus encoding for either a shUSP16 or a non-targeting shRNA (Ctrl) and sorted for GFP on day 8. Cells were cultured in the presence of IL-2 and their phenotype was analyzed at day 20. Cells were stained for CD4-PerCP-5.5 or CD8-BV510, CD62L-Allophycocyanin, CD45RA-BV510 or PE-Cy7 (Biolegend). Naïve or stem cell memory T cells (TNa/SCM) were identified as Sytox^− GFP^+CD45RA^+CD62L^+. Number of TNa/SCM was calculated as (#CD4 or CD8 T cells*TNa/SCMpercentage)/100. Flow cytometry was performed on the MACQuant (Myltenyi Biotec) and the data analyzed with FlowJo (shCtrl vs shUSP CD4: 0.4978 vs 0.7915, p=0.0673 and CD8: 2.469 vs 4.984, p=0.00392, n=7). Downregulation of USP16 expression increases the number of CD4+CD45RA+CD62L+(FIG. 11A) and CD8+CD45RA+CD62L+(FIG. 11B) cells in culture by 1.7 (p=0.0205) and 1.9 (p=0.0097) times, respectively.
Primary T cells were activated as described (Example 3), transduced with a lentivirus encoding either a shUSP16 #1, shUSP16 #2 or a non-targeting shRNA (shCtrl) and cells were selected with puromycin at day 6. At day 15 cell were collected and analyzed by qPCR for the expression of LEF1 (FIG. 16A) and TCF7 (FIG. 16B), downstream regulators of the WNT pathway. At day 20, cells were stained for CD4-PE, CD8-BV510, CD62L-Allophycocyanin and CD45RA-APC-Cy7 (Biolegend). Stem cell memory T cells (Tscm) were identified as Sytox^− GFP^+CD45RA^+CD62L^+, central memory T cells (Tcm) as Sytox^−GFP^+CD45RA^−CD62L^+, effector memory T cells (Tem) as Sytox^−GFP^+CD45RA^−CD62L^−, and terminal effector T cell (Teff) as Sytox^−GFP^+CD45RA^+CD62L^− (FIG. 17A). Cells were gated on the CD8 population. The specific increase of Tscm was shown as phenotype ratio (FIG. 17B).
Primary T cells were activated as described (Example 3). At Day 6 post-activation, dynabeads were removed and T cells electroporated using the Neon Transfection System (ThermoFisher) with a 2.5:1 ratio sgRNA:Cas9. The experiment was performed following the protocol optimized for primary T cell by Synthego (CRISPR Editing Human Primary CD4+ T cells with RNPs using Neon Electroporation Protocol, 2018 version). The sgRNA used are the following: gUSP16 #1 5′-[…]-3′ (SEQ ID NO: 10) and gSynthego that comprises 3 different sgRNAs (gRNA-A: 5′-[…] 3′ (SEQ ID NO: 11); gRNA-B: 5′-[…]-3′ (SEQ ID NO: 12); gRNA-C: 5′-[…]-3′ (SEQ ID NO: 13)). Control T cells, identified as Mock, were electroporated but no Cas9:sgRNA mixture was added. […] At day 15 post-activation, cells were stained for CD4-PE, CD8-BV510, CD62L-Allophycocyanin and CD45RA-APC-Cy7 (Biolegend). Stem cell memory T cells (Tscm) were identified as Sytox^−GFP^+CD45RA^+CD62L^+ and graphed as ratio compared to mock cells (FIG. 22). The experiment was repeated using primary T cells obtained from buffy coats of 2 different healthy donors.
Primary T cells were activated as described (Example 3), transduced with a lentivirus encoding for either a CD19.CAR or a GD2.CAR co-expressing shUSP16 #1, shUSP16 #2 or a scrambled shRNA (Control). At day 15, GD2.CAR and CD19.CAR T cells were stained for EGFR-AF488 (R&D), CD3-PE, CD8-BV510, CD62L-Allophycocyanin and CD45RA-APC-Cy7 (Biolegend). Stem cell memory T cells (Tscm) were identified as FITC^+CD45RA^+CD62L^+, central memory T cells (Tcm) as FITC^+CD45RA^−CD62L^+, effector memory T cells (Tem) as FITC^+CD45RA^−CD62L^−, and terminal effector T cell (Teff) as FITC^+CD45RA^+CD62L^−. Cells were gated on the CD8 population. The specific increase of Tscm was shown as phenotype ratio (FIGS. 28A and 28B).

NALM leukemia cell line = assay: In vivo anti-tumor activity of CD19.CAR T cells (circulating Gaussia luciferase); conditions: immunocompromised mice, one million CD19.CAR T cells via tail vein, n=4-6
Method: Primary T cells were activated and prepared, as in Example 26. NALM leukemia cell line was transduced with Gaussia Luciferase and one million cells were injected via tail vein at d−4. One million of CD19.CAR T cells were then infused via tail vein at d=0 and mice were weighted, and blood was collected every week (FIG. 38). Tumor growth was monitor by weekly assessment of circulating luciferase. Briefly, blood was collected and subsequently analyzed for luciferase expression using Nanolight Technologies Luciferase detection Kit. Luciferase expression (calculated as GLuc, RLU (Relative Luminescence Unit)) in the blood correlates with tumor engraftment. As NALM cells engraft primarily in the spleen, at the time of sacrifice, the spleens were collected and photographed (FIG. 39B), the size of the spleen directly correlates to the amount of tumor infiltrated in the organ.

NALM cells = assay: CAR-T in vitro cytotoxicity assay, CD19.CAR T cells; assay type: cell-based, human; conditions: 1:5 E:T, 72 hours, n=3
Method: Primary T cells were activated as described (Example 3), transduced with a lentivirus encoding for either a CD19.CAR or a GD2.CAR co-expressing shUSP16 #1, shUSP16 #2 or a scrambled shRNA (Control). Cells were cultured in IL-2 and sorted between days 6-13 for EGFRt. At day 16 cytotoxicity assays were performed. Briefly, cells were counted and 100,000 T cells (adjusted for EGFR expression) were plated at 1:5 Effector:Target (E:T) ratio. At 72 hours, the mixture of tumor cells and T cells were collected, stained for CD3-PE, CD8-BV510, CD19- or GD2-APC, EGFR-AF488 and Sytox and counted by flow cytometry (MACSQuant, Miltenyi Biotec) (FIGS. 30A and 30B). Counting beads (CountBright Absolute Counting beads, Invitrogen) were added before acquisition and absolute number was calculated as following (number of cell events/number of bead events)×(assigned bead count of the lot (beads/50 ul)/volume of sample (ul))=concentration of sample as cells/ul). NALM cells were used as target cells for CD19.CAR T cells and CHLA-55 cells were used as target for GD2.CAR T cells. Three different primary T cell cultures were tested for CD19 and GD2 CAR.

Row | Substance | stem cell frequency (Tscm), fold change vs Control (primary T cells; CD19.CAR, day 15, n=5) | stem cell frequency (Tscm), fold change vs Control (primary T cells; GD2.CAR, day 15, n=4) | stem cell frequency (Tscm phenotype ratio), fold increase over Control (primary T cells) | NALM engraftment, luciferase expression in blood (GLuc) (NALM leukemia cell line) [RLU] | T cell number (NALM cells) | residual tumor cells (NALM) (NALM cells)
1 | shUSP16 #1: shRNA targeting USP16, 5′-GACTGTAAGACTGACAATAAA-3′ (SEQ ID NO: 8), pSIH backbone or co-expressed in CAR plasmid | 1.994 | 1.347 | 2.022 | 38603 | 46674 | 29688
2 | shUSP16 #2: shRNA targeting USP16, 5′-TATATCAGTTCACCCGTAAT-3′ (SEQ ID NO: 9), pSIH backbone or co-expressed in CAR plasmid | 2.273 | 1.383 | 2.63 | 5169 | 58732 | 28462
